Results published in paper PMC9223658, “New Borane-Protected Derivatives of α-Aminophosphonous Acid as Anti-Osteosarcoma Agents: ADME Analysis and Molecular Modeling, In Vitro Studies on Anti-Cancer Activities, and NEP Inhibition as a Possible Mechanism of Anti-Proliferative Activity” (International Journal of Molecular Sciences, 2022).

System: HOS cells
Experiment: Invasiveness, BME-coated transwell assay
Assay type: cell-based, human
Conditions: 24 h
Method: The invasiveness of the HOS osteosarcoma cells was assessed after treatment with compound 4 at concentrations of 12.5, 25 and 50 µM. The assay was carried out using the Trevigen’sCultureCoat®24-well Cell Invasion Assay (R&D Systems, Minneapolis, […], USA) equipped with a Basement Membrane Extract (BME)-coated membrane (8 µm) of transwell inserts. The assay was performed according to the manufacturer’s instruction and as in the transwell migration assay described above.

[BH3-][P+](OC(C)C)(OC(C)C)C(Nc1ccc(Br)cc1)c1ccc([N+](=O)[O-])cc1 (stereo not drawn) [Compound 4, [1-(N-p-bromophenylamino)]-1-(p-nitrophenyl)methylphosphonousacid-borane diisopropyl ester]
decrease in cell invasiveness (12.5 µM): approx. 53% | decrease in cell invasiveness (25 µM): ~70% | decrease in cell invasiveness (50 µM): ~82%
